Test results reported in US9005963B2, “Amino acid sequences directed against cellular receptors for viruses and bacteria” (Ablynx N.V., priority 2008, dated 2015).
Converted amounts (≈) assume the structure as drawn. Each block holds one molecule with its values, some of them ahead of it.

Assays:
CXCR4 [1] = target: T1, CXCR4 (Homo sapiens, UniProt P61073); experiment: Competition binding with [125I]-238D2 on membranes from HEK293T cells transiently expressing CXCR4; parameters: expressed in transfected cells; host or cells: HEK293T, transient (pcDNA3.1-CXCR4); conditions: for displacement of [125I]-238D2 (in words): 238C5 only at high concentrations (≧100 nM); for Displacem. (%) of [125I]-238D2: maximal displacement, a: no significant displacement at 0.5 μM, b: displacement at 0.5 μM
T1 sequence (P61073 whole entry): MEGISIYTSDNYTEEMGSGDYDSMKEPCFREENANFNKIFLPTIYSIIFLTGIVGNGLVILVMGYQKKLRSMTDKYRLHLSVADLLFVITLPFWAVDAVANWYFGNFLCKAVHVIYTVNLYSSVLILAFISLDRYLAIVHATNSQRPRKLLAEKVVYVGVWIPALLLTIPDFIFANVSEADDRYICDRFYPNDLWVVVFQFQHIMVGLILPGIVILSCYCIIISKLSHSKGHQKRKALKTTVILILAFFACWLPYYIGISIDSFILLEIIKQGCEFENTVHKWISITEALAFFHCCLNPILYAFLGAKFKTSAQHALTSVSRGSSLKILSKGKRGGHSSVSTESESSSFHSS
Description: (§1) Membranes from HEK293T cells transiently expressing CXCR3 or CXCR4 were prepared 48 h after transfection as follows. Cells were washed and scraped from the cell culture dishes with ice-cold PBS containing 1 mm EDTA. The scraped cells were pelleted at 1500×g for 10 min at 4° C. The pellet was washed and then resuspended in ice-cold membrane buffer (15 mM Tris, pH 7.5, 1 mM EGTA, 0.3 mM EDTA, and 2 mM MgCl2). The cell suspension was homogenized by 10 strokes at 1200 rpm using a Teflon-glass homogenizer and rotor and further subjected to three freeze-thaw cycles using liquid nitrogen. Membranes were separated by centrifugation at 40,000 g for 25 min at 4° C. The membrane pellet was washed and resuspended in ice-cold Tris-sucrose buffer (20 mM Tris, pH 7.4, and 250 mM sucrose) and frozen in liquid nitrogen. The total protein was determined using a Bradford assay (Bio-Rad).
(§2) Membranes were then harvested over polyethylenimine (0.5%)-treated Whatman GF/C filter plates and washed three times with ice cold binding buffer containing 500 mM NaCl. Plates were counted by liquid scintillation.

X4 HIV-1 NL4.3 [2] = experiment: HIV-1 infection assay PBMC/NL4.3 (p24 Ag ELISA); assay type: cell-based; conditions: Human immunodeficiency virus 1, PBMC
Description: (§3) The CXCR4-using (X4) HIV-1 molecular clone NL4.3 was obtained from the National Institutes of Health NIAID AIDS Reagent program (Bethesda, Md.), the CCR5-using (R5) HIV-1 strain BaL was obtained from the Medical Research Council AIDS reagent project (Herts, UK). […] The MT-4 cells were seeded out in 96-well plate and the U87 cells in 24-well plates. The test compounds were added at different concentrations together with HIV-1 and the plates were maintained at 37° C. in 10% CO2. Cytopathic effect induced by the virus was monitored by daily microscopic evaluation of the virus-infected cell cultures. […] The absorbance was then measured spectrophotometrically at 490 nm with a 96-well plate reader (Molecular Devices, Sunnyvale, Calif.) and compared with four cell control replicates (cells without virus and drugs) and four virus control wells (virus-infected cells without drugs).
(§4) Peripheral blood mononuclear cells (PBMCs) from healthy donors were isolated by density centrifugation (Lymphoprep; Nycomed Pharma, AS Diagnostics, Oslo, Norway) and stimulated with phytohemagglutin (PHA) (Sigma Chemical Co., Bornem Belgium) for 3 days. The activated cells (PHA-stimulated blasts) were washed with PBS and viral infections were performed as described previously (Schols D, Struyf S, Van Damme J, Este J A, Henson G, De Clercq E. Inhibition of T-tropic HIV strains by selective antagonization of the chemokine receptor CXCR4. J Exp Med 1997; 186:1383-1388). At 8-10 days after the start of the infection, viral p24 Ag was detected in the culture supernatant by an enzyme-linked immunosorbent assay (Perkin Elmer, Brussels, Belgium).
(§5) The anti-HIV-1 potencies of NANOBODIES on the X4 HIV-1 clone NL4.3 or primary virus strains UG270 (X4, Clade D), CI#17 (X4, clade B), the R5 HIV-1 strain BaL or the R5/X4 HIV-1 HE strain in MT-4, U87.CD4.CXCR4, U87.CD4.CCR5 and/or phytohemagglutin-stimulated PBMCs from different donors were determined by measuring the cytopathic effect of HIV-1 (in MT-4 and U87 cell lines) microscopically and by tetrazolium-based colorimetric evaluation or by quantification of the viral p24 antigen production in the culture supernatant (PBMCs) as described in detail. Primary virus strains were grown 1 or 2 times in PBMC only.
Peripheral blood mononuclear cells (PBMCs) from healthy donors were isolated by density centrifugation (Lymphoprep; Nycomed Pharma, AS Diagnostics, Oslo, Norway) and stimulated with phytohemagglutin for 3 days. […] At 8-10 days after the start of the infection, viral p24 Ag was detected in the culture supernatant by an enzyme-linked immunosorbent assay (Perkin Elmer, Brussels, Belgium).

[3] = tested on: HIV-1 UG270 (X4, Clade D); experiment: HIV-1 infection assay PBMC/primary isolate UG270 (p24 Ag ELISA); assay type: cell-based; conditions: Human immunodeficiency virus 1, PBMC
Description: as §5
as §4, with “phytohemagglutin” for “phytohemagglutin (PHA) (Sigma Chemical Co., Bornem Belgium)”, “cells” for “cells (PHA-stimulated blasts)”, “et al. (1997)” for “Struyf S, Van Damme J, Este J A, Henson G, De Clercq E.”, “Med” for “Med 1997;”

X4 HIV-1 NL4.3 [4] = experiment: HIV-1 infection assay MT-4/NL4.3 (cytopathic effect, MTS); assay type: cell-based; conditions: Human immunodeficiency virus 1; MT-4/NL4.3 exp. 1
CXCR4 [5] = target: T1, CXCR4; conditions: 3 μM; control experiment; membranes from HEK293T cells transiently expressing CXCR4
CXCR4 [6] = target: T1, CXCR4; experiment: Competition binding with [125I]-CXCL12 on membranes from HEK293T cells transiently expressing CXCR4; parameters: expressed in transfected cells; host or cells: HEK293T, transient (pcDNA3.1-CXCR4); displacement of specifically bound [125I]-CXCL12 (in words): dose or concentration left out as unconfirmed; conditions: for Displacem. (%) of [125I]-CXCL12: maximal displacement, a: no significant displacement at 0.5 μM, b/c(B-6): maximum not reached, displacement at 0.5 μM
Description: as §1
Membranes were then harvested over polyethylenimine (0.5%)-treated Whatman GF/C filter plates and washed three times with ice cold binding buffer containing 500 mM NaCl. Plates were counted by liquid scintillation. […]

[7] = tested on: HIV-1 CI#17 (X4, clade B); experiment: HIV-1 infection assay PBMC/primary isolate CI#17 (p24 Ag ELISA); assay type: cell-based; conditions: Human immunodeficiency virus 1, PBMC
Description: as §5
as §4, with “phytohemagglutin” for “phytohemagglutin (PHA) (Sigma Chemical Co., Bornem Belgium)”, “cells” for “cells (PHA-stimulated blasts)”, “et al. (1997)” for “Struyf S, Van Damme J, Este J A, Henson G, De Clercq E.”, “Med” for “Med 1997;”

CXCR4 [8] = target: T1, CXCR4; experiment: Competition binding with [125I]-238D4 on membranes from HEK293T cells transiently expressing CXCR4; parameters: expressed in transfected cells; host or cells: HEK293T, transient (pcDNA3.1-CXCR4); conditions: for displacement of [125I]-238D4 (in words): 238C5 only at high concentrations (≧100 nM); for Displacem. (%) of [125I]-238D4: maximal displacement, a: no significant displacement at 0.5 μM, b: displacement at 0.5 μM
Description: as §1, §2

R5 HIV-1 BaL [9] = experiment: HIV-1 infection assay U87.CD4.CCR5/BaL (MTS); assay type: cell-based; conditions: read-out: Anti-HIV-1 activity (IC50)
R5 HIV-1 BaL [10] = experiment: HIV-1 infection assay PBMC/BaL (p24 Ag ELISA); assay type: cell-based
Description: as §3, §4, §5
as §4, with “phytohemagglutin” for “phytohemagglutin (PHA) (Sigma Chemical Co., Bornem Belgium)”, “cells” for “cells (PHA-stimulated blasts)”, “et al. (1997)” for “Struyf S, Van Damme J, Este J A, Henson G, De Clercq E.”, “Med” for “Med 1997;”

displacement of [125I]-238D2 (in words) (CXCR4 [1]): displaced
Displacem. (%) of [125I]-238D2 (CXCR4 [1]): 102 ± 1%
IC50 (X4 HIV-1 NL4.3 [2]; PBMC + NL4.3 donor 1): 0.0011 mg/L
IC90 (X4 HIV-1 NL4.3 [2]; PBMC + NL4.3 donor 1): 0.0099 mg/L
IC50 (X4 HIV-1 NL4.3 [2]; PBMC + NL4.3 donor 2): > 0.04 mg/L
IC90 (X4 HIV-1 NL4.3 [2]; PBMC + NL4.3 donor 2): > 0.04 mg/L
IC50 ([3]; PBMC + UG270 donor 1): 0.0036 mg/L
IC90 ([3]; PBMC + UG270 donor 1): 0.0154 mg/L
IC50 ([3]; PBMC + UG270 donor 2): 0.0179 mg/L
IC90 ([3]; PBMC + UG270 donor 2): 0.0341 mg/L
displacement of [125I]-CXCL12 (CXCR4 [5]): full
Displacem. (%) of [125I]-CXCL12 (CXCR4 [6]): 94 ± 2%
IC50 ([7]; PBMC + CI#17 donor 1): 0.0121 mg/L
IC90 ([7]; PBMC + CI#17 donor 1): > 0.04 mg/L
IC50 ([7]; PBMC + CI#17 donor 2): 0.0149 mg/L
IC90 ([7]; PBMC + CI#17 donor 2): 0.0379 mg/L
displacement of [125I]-238D4 (in words) (CXCR4 [8]): displaced
Displacem. (%) of [125I]-238D4 (CXCR4 [8]): 99 ± 4%
Molecule: c1cc(CN2CCCNCCNCCCNCC2)ccc1CN1CCCNCCNCCCNCC1 [AMD3100]
IC50 (X4 HIV-1 NL4.3 [4]): 0.0064 mg/L (≈ 0.0127 µM)
IC90 (X4 HIV-1 NL4.3 [4]): > 0.04 mg/L

Molecule: maraviroc
IC50 (R5 HIV-1 BaL [9]): 0.72 nM
IC50 (R5 HIV-1 BaL [10]; PBMC + BaL donor 1): 0.0015 mg/L
IC90 (R5 HIV-1 BaL [10]; PBMC + BaL donor 1): 0.0273 mg/L
IC50 (R5 HIV-1 BaL [10]; PBMC + BaL donor 2): 0.0008 mg/L
IC90 (R5 HIV-1 BaL [10]; PBMC + BaL donor 2): 0.0131 mg/L
IC50 (R5 HIV-1 BaL [10]; read-out: Anti-HIV-1 activity (IC50), PBMC/BaL): 3.13 nM

displacement of [125I]-238D2 (in words) (CXCR4 [1]): unable to inhibit
pKi ([125I]-238D2) (CXCR4 [1]; HEK293T-CXCR4 membranes): <6.3
Displacem. (%) of [125I]-238D2 (CXCR4 [1]): 0^a %
pKi ([125I]-CXCL12) (CXCR4 [6]; HEK293T-CXCR4 membranes): <6.3
Displacem. (%) of [125I]-CXCL12 (CXCR4 [6]): 0^a %
displacement of specifically bound [125I]-CXCL12 (in words) (CXCR4 [6]; purified Nanobodies): unable to displace
displacement of [125I]-238D4 (in words) (CXCR4 [8]): unable to inhibit
pKi ([125I]-238D4) (CXCR4 [8]; HEK293T-CXCR4 membranes): <6.3
Displacem. (%) of [125I]-238D4 (CXCR4 [8]): 0^a %
B1: 237D2: selected Nanobody, SEQ ID NO: 241 (protein)
VHH: EVQLVESGGGLVQPGGSLRLSCAASGFTFDDYAMSWVRQAPGKGLEWVSAISWNGGSTDYADSVKGRFTISRDNAKNTLYLQMNSLKSEDTAEYYCARDQGPFYSGTYYYTRQYGYRGQGTQVTVSS
modifications: Nanobodies
